Experimental data: patent US10675275B2, “Prophylactic and/or therapeutic agent for fibromyalgia” (ONO PHARMACEUTICAL CO., LTD., priority 2015, dated 2020)
Structures can show the parent of a compound that is named as a salt.

System: rat somatic hyperalgesia model
Assay: Efficacy in a rat somatic hyperalgesia model (acid saline, Randall-Selitto pain threshold)
Type: in vivo
Settings: SD male rats, right hind paw (non-challenged side), oral
Procedure: SD male rats (Charles River Laboratories Japan, Inc., 5 weeks old upon usage) were used. Under isoflurane anaesthesia, rats were intramuscularly administered with 100 μL of acidic saline of pH 4.0 in the left gastrocnemius. After 5 days of administration, rats again received 100 μL of acid saline in the left gastrocnemius. In the normal group, rats were intramuscularly administered with 100 μL of saline twice in total with 5 days apart in the left gastrocnemius (see Muscle Nerve, vol. 24, pp. 37-46, 2001).
The pain threshold was measured on a Randall-Selitto pressure analgesy-meter (Ugo Basile). Briefly, rats were securely fixed and uniformly and continuously increasing pressure was applied to the hind paws. […] For each of the left and right hind paws, tests were carried out three times at each evaluation point and the values were averaged to obtain the pain threshold.
For the normal group, rats were arbitrarily selected from those showing the pain threshold on the day before the first administration of acid saline of 140 g or more for both left and right hind paws. After being divided into groups, administration of the test compound (the present compound (the compound described in Example 38 of PTL 1), comparative compound A (the compound described in Example 38(5) of PTL 1), comparative compound B (the compound described in Example 41(2) of PTL 1), comparative compound C (1-(2-chlorophenyl)-N-methyl-N-(1-methylpropyl)isoquinoline-3-carboxamide (PK11195), CAS registry No.: 85532-75-8), a control substance (duloxetine hydrochloride, pregabalin) or a vehicle (0.5 w/v % methylcellulose 400 cP solution)) was started on the same day. On day 1 and day 7 of administration of each drug solution, the pain threshold on left and right hind paws was measured in a blind manner 2 hours after the first administration. Duloxetine hydrochloride was orally administered once a day and other agents were orally administered twice a day.

`CCC(C)N(C)C(=O)c1cc2ccccc2c(-c2ccccc2Cl)n1` (centres unmarked) [comparative compound C, 1-(2-chlorophenyl)-N-methyl-N-(1-methylpropyl)isoquinoline-3-carboxamide] was tested, and the “pain threshold (efficacy for the pain threshold decreased in the control group)” value (day 7, before and 2 hours after administration, 1 mg/kg, twice a day) was “did not show the efficacy”.
With `CC(C)C[C@H](CN)CC(=O)O` [pregabalin] the “pain threshold (suppression of the decrease caused by acid saline)” value (day 7, before and 2 hours after administration, 20 mg/kg, twice a day) was “suppressed this decrease of the pain threshold”.
`CNCC[C@H](Oc1cccc2ccccc12)c1cccs1` [duloxetine hydrochloride] was tested, and the “pain threshold (suppression of the decrease caused by acid saline)” value (day 7, before and 2 hours after administration, 30 mg/kg, once a day) was “suppressed this decrease of the pain threshold”.
In the case of `COc1cc(Cl)ccc1[C@H]1c2[nH]c3cccc(F)c3c2C2(CC2)CN1C(C)=O` [the present compound, (1S)-2-acetyl-1-(4-chloro-2-methoxyphenyl)-5-fluoro-1,2,3,9-tetrahydrospiro[β-carboline-4,1′-cyclopropane]], the “pain threshold (suppression of the decrease caused by acid saline)” value (day 7 of administration, before and 2 hours after administration, 0.1, 1 or 10 mg/kg, twice a day) is reported as “significant suppression” and the “pain threshold (suppression of the decrease caused by acid saline)” value (day 7 of administration, before and 2 hours after administration, 0.1, 1 or 10 mg/kg, twice a day, listed as The present compound) is reported as “suppressed this decrease of the pain threshold”.
